Values quoted from earlier work in patent publication US10463045B2, “Agrochemical composition” (Nippon Soda Co., Ltd., priority 2015, dated 2019).
≈ marks a conversion by molar mass, not a printed value. Like-named read-outs stand apart in the source and are kept apart here.

Molecule: N#CCNC(=O)c1cnccc1C(F)(F)F [flonicamid]
- solubility in water (20° C.): 5,200 mg/l

Molecule: CNC(=O)ON=C(C)SC [methomyl, S-methyl-N-(methylcarbamoyloxy) thioacetimidate]
- solubility in water (20° C., pH 7): 46,000 mg/l

Molecule: CC(C1CC1)C(O)(Cn1cncn1)c1ccc(Cl)cc1 (stereo not drawn) [cyproconazole, 2-(4-chlorophenyl)-3-cyclopropyl-1-(1H-1,2,4-triazol-1-yl) butan-2-ol]
- solubility in water (pH 6.9): 100 mg/L (≈ 343 µM)

Molecule: 5-butyl-2-dimethylamino-6-methylpyridin-4-ol [dimethirimol]
- solubility in water (25° C.): 1,200 mg/l

Molecule: CN1CSC(=S)N(C)C1 [dazomet, 3,5-dimethyl-tetrahydro-2H-1,3,5-thiadiazine-2-thione]
- solubility in water (20° C.): 3,500 mg/l

Molecule: ClC=CCCl [D-D, 1,3-dichloropropene]
- solubility in water (E form, 20° C.): 2,520 mg/l
- solubility in water (Z form, 20° C.): 2,450 mg/l

Molecule: CC(C)N1C(=O)c2ccccc2NS1(=O)=O [bentazon, 3-isopropyl-1H-2,1,3-benzothiadiazin-4(3H)-one-2,2-dioxide]
- solubility in water (20° C.): 570 mg/L (≈ 2370 µM)

Molecule: CN(CC[C@H](N)CC(=O)N[C@H]1C=C[C@H](n2ccc(N)nc2=O)O[C@@H]1C(=O)O)C(=N)N [blasticidin S, 1-(4-amino-1,2-dihydro-2-oxopyrimidin-1-yl)-4-[(S)-3-amino-5-(1-methyl-guanidino)valeramido]-1,2,3,4,-tetradioxy-β-D-erythrohexy-2-enopyranuronic acid]
- solubility in water (20° C.): 30,000 mg/l
